# Source: patent US11331327B2, “Antibacterial use of halogenated salicylanilides” (UNION therapeutics A/S, priority 2014, dated 2022)
# System: S. aureus clinical isolates and S. aureus ATCC 29213
# Experiment: MIC assay according to CLSI criteria, Example 2, S. aureus strains
# Type: cell-based, Staphylococcus aureus
# Settings: Staphylococcus aureus
# In short: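 S. aureus grown aerobically in cation-adjusted Mueller Hinton broth at 37° C. Exponential-phase cultures inoculated at about 5×10^5 cells per well, then incubated 18 hours at 37° C.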
smiles,measurement,setting,value
C=C[C@]1(C)C[C@@H](OC(=O)CS[C@@H]2C[C@H]3CC[C@@H](C2)N3C)[C@]2(C)[C@H](C)CC[C@]3(CCC(=O)[C@H]32)[C@@H](C)[C@@H]1O [Retapamulin],MIC,"ATCC 29213 / MRSA, strain MRSA 15",0.06 µg/mL
same,MIC,"ATCC 29213 / MRSA, strain MRSA 16",0.06 µg/mL
same,MIC,"ATCC 29213 / MRSA, strain MRSA 17",0.03 µg/mL
same,MIC,"ATCC 29213 / MRSA, strain MRSA 18",0.06 µg/mL
same,MIC,"ATCC 29213 / MRSA, strain MRSA 19",0.03 µg/mL
same,MIC,"ATCC 29213 / MRSA, strain MRSA 20",0.06 µg/mL
same,MIC,"ATCC 29213 / MRSA, strain MRSA 21",0.125 µg/mL
same,MIC,"ATCC 29213 / MRSA, strain MRSA 22",0.06 µg/mL
same,MIC,"ATCC 29213 / MRSA, strain MRSA 23",0.06 µg/mL
same,MIC,"ATCC 29213 / MRSA, strain MRSA 24",0.06 µg/mL
same,MIC,"ATCC 29213 / MRSA, strain MRSA 25",0.06 µg/mL
same,MIC,"ATCC 29213 / MRSA, strain MRSA 26",0.06 µg/mL
same,MIC,"ATCC 29213 / MRSA, strain MRSA 27",0.06 µg/mL
same,MIC,"ATCC 29213 / MRSA, strain MRSA 27b",0.02 µg/mL
same,MIC,"ATCC 29213 / MRSA, strain MRSA 28",0.03 µg/mL
same,MIC,"ATCC 29213 / MRSA, strain MRSA 29",0.06 µg/mL
same,MIC,"ATCC 29213 / MRSA, strain MRSA 30",0.03 µg/mL
same,MIC,"ATCC 29213 / MRSA, strain MRSA 31",16 µg/mL
same,MIC,"ATCC 29213 / MRSA, strain MRSA 32",0.06 µg/mL
same,MIC,"ATCC 29213 / MRSA, strain MRSA 33",0.06 µg/mL
same,MIC,"ATCC 29213 / MRSA, strain MRSA 34",0.06 µg/mL
same,MIC,"ATCC 29213 / MRSA, strain MRSA 35",0.03 µg/mL
same,MIC,"ATCC 29213 / MRSA, strain MRSA 36",0.06 µg/mL
same,MIC,"ATCC 29213 / MRSA, strain MRSA 37",0.06 µg/mL
same,MIC,"ATCC 29213 / MRSA, strain MRSA 38",0.06 µg/mL
same,MIC,"ATCC 29213 / MRSA, strain MRSA 39",0.06 µg/mL
same,MIC,"ATCC 29213 / MRSA, strain MRSA 40",0.03 µg/mL
same,MIC,"ATCC 29213 / MRSA, strain MRSA 41",0.02 µg/mL
same,MIC,"ATCC 29213 / MRSA, strain MRSA 42",0.06 µg/mL
same,MIC,"ATCC 29213 / MRSA, strain MRSA 43",0.06 µg/mL
same,MIC,"ATCC 29213 / MRSA, strain MRSA 44",0.02 µg/mL
same,MIC,"ATCC 29213 / MRSA, strain MRSA 45",0.02 µg/mL
same,MIC,"ATCC 29213 / MRSA, strain MRSA 46",0.02 µg/mL
same,MIC,"ATCC 29213 / MRSA, strain MRSA 47",0.02 µg/mL
same,MIC,"ATCC 29213 / MRSA, strain MRSA 48",0.02 µg/mL
same,MIC,"ATCC 29213 / MRSA, strain MRSA 49",0.02 µg/mL
same,MIC,"ATCC 29213 / MRSA, strain MRSA 50",0.02 µg/mL
same,MIC,"ATCC 29213 / MRSA, strain MRSA 51",0.03 µg/mL
same,MIC,"ATCC 29213 / MRSA, strain MRSA 52",0.02 µg/mL
same,MIC,"ATCC 29213 / MRSA, strain MRSA 53",0.03 µg/mL
same,MIC,"ATCC 29213 / MRSA, strain MRSA 54",0.03 µg/mL
same,MIC,"ATCC 29213 / MRSA, strain MRSA 55",0.02 µg/mL
same,MIC,"ATCC 29213 / MRSA, strain MRSA 56",< 0.01 µg/mL
same,MIC,"ATCC 29213 / MRSA, strain MRSA 57",0.02 µg/mL
same,MIC,"ATCC 29213 / MRSA, strain MRSA 58",0.02 µg/mL
same,MIC,"ATCC 29213 / MRSA, strain MRSA 59",0.02 µg/mL
same,MIC,"ATCC 29213 / MRSA, strain MRSA 60",0.02 µg/mL
same,MIC,"ATCC 29213 / MRSA, strain MRSA 61",0.02 µg/mL
same,MIC,"ATCC 29213 / MRSA, strain MRSA 62",0.02 µg/mL
same,MIC,"ATCC 29213 / MRSA, strain MRSA 63",0.02 µg/mL
same,MIC,"ATCC 29213 / MRSA, strain MRSA 64",0.02 µg/mL
same,MIC,"ATCC 29213 / MRSA, strain MRSA 65",0.02 µg/mL
same,MIC,"ATCC 29213 / MRSA, strain MRSA 66",0.02 µg/mL
same,MIC,"ATCC 29213 / MRSA, strain MRSA 67",0.02 µg/mL
same,MIC,"ATCC 29213 / MRSA, strain MRSA 68",0.02 µg/mL
same,MIC,"ATCC 29213 / MRSA, strain MRSA 69",< 0.01 µg/mL
same,MIC,"ATCC 29213 / MRSA, strain MRSA 70",0.02 µg/mL
same,MIC,"ATCC 29213 / MRSA, strain MRSA 71",< 0.01 µg/mL
same,MIC,"ATCC 29213 / MRSA, strain MRSA 72",0.03 µg/mL
same,MIC,"ATCC 29213 / MRSA, strain MRSA 73",0.03 µg/mL
same,MIC,"ATCC 29213 / MRSA, strain MRSA 74",0.03 µg/mL
same,MIC,"ATCC 29213 / MRSA, strain MRSA 75",0.03 µg/mL
same,MIC,"ATCC 29213 / MRSA, strain MRSA 76",0.03 µg/mL
same,MIC,"ATCC 29213 / MRSA, strain MRSA 77",0.03 µg/mL
same,MIC,"ATCC 29213 / MRSA, strain MRSA 78",0.03 µg/mL
same,MIC,"ATCC 29213 / MRSA, strain MRSA 79",< 0.01 µg/mL
same,MIC,"ATCC 29213 / MRSA, strain MRSA 80",0.02 µg/mL
same,MIC,"ATCC 29213 / MRSA, strain MRSA 81",0.03 µg/mL
same,MIC,"ATCC 29213 / MRSA, strain MRSA 82",0.03 µg/mL
same,MIC,"ATCC 29213 / MRSA, strain MRSA 83",0.03 µg/mL
same,MIC,"ATCC 29213 / MRSA, strain MRSA 84",0.03 µg/mL
same,MIC,"ATCC 29213 / MRSA, strain MRSA 85",0.03 µg/mL
same,MIC,"ATCC 29213 / MRSA, strain MRSA 86",0.03 µg/mL
same,MIC,"ATCC 29213 / MRSA, strain MRSA 87",0.02 µg/mL
same,MIC,"ATCC 29213 / MRSA, strain MRSA 88",0.03 µg/mL
same,MIC,"ATCC 29213 / MRSA, strain MRSA 89",0.02 µg/mL
same,MIC,"ATCC 29213 / MRSA, strain MRSA 90",0.06 µg/mL
same,MIC,"ATCC 29213 / MRSA, strain MRSA 91",0.06 µg/mL
same,MIC,"ATCC 29213 / MRSA, strain MRSA 92",0.06 µg/mL
same,MIC,"ATCC 29213 / MRSA, strain MRSA 93",0.02 µg/mL
same,MIC,"ATCC 29213 / MRSA, strain MRSA 94",0.03 µg/mL
same,MIC,"ATCC 29213 / MRSA, strain MRSA 95",0.03 µg/mL
same,MIC,"ATCC 29213 / MRSA, strain MRSA 96",0.03 µg/mL
same,MIC,"ATCC 29213 / MRSA, strain MRSA 97",0.03 µg/mL
same,MIC,"ATCC 29213 / MRSA, strain MRSA 98",0.03 µg/mL
same,MIC,"ATCC 29213 / MRSA, strain MRSA 99",0.03 µg/mL
same,MIC,"ATCC 29213 / MRSA, strain MRSA 100",1 µg/mL
same,MIC,"ATCC 29213 / MRSA, strain MRSA 101",0.03 µg/mL
same,MIC,"ATCC 29213 / MRSA, strain MRSA 102",0.03 µg/mL
same,MIC,"ATCC 29213 / MRSA, strain MRSA 103",0.03 µg/mL
same,MIC,"ATCC 29213 / MRSA, strain MRSA 104",0.03 µg/mL
same,MIC,"ATCC 29213 / MRSA, strain MRSA 105",0.03 µg/mL
same,MIC,"ATCC 29213 / MRSA, strain MRSA 106",0.06 µg/mL
same,MIC,"ATCC 29213 / MRSA, strain MRSA 107",0.06 µg/mL
same,MIC,"ATCC 29213 / MRSA, strain MRSA 108",0.03 µg/mL
same,MIC,"ATCC 29213 / MRSA, strain MRSA 109",0.03 µg/mL
same,MIC,"ATCC 29213 / MRSA, strain MRSA 110",0.03 µg/mL
same,MIC,"ATCC 29213 / MRSA, strain MRSA 111",0.03 µg/mL
same,MIC,"ATCC 29213 / MRSA, strain MRSA 112",0.03 µg/mL
same,MIC,"ATCC 29213 / MRSA, strain MRSA 113",0.03 µg/mL
same,MIC,"ATCC 29213 / MSSA, strain MSSA 01",0.03 µg/mL
same,MIC,"ATCC 29213 / MSSA, strain MSSA 02",0.03 µg/mL
same,MIC,"ATCC 29213 / NEWMAN, strain Newman",0.03 µg/mL
